Test results as given in patent US20090209541A1, “APREPITANT COMPOSITIONS” (Dr. Reddy's Laboratories Ltd., priority 2006, published 2009).
Converted amounts (≈) assume the structure as drawn. One block for each compound: values may come before it.

What was measured:
[1] = Solubility of powder compositions of aprepitant at 25° C. in water (HPLC method); type: physicochemical; settings: thermodynamic from solid
Experimental: Solubility of Powder Compositions of Aprepitant at 25° C. in Water
• A. Aprepitant: Neat aprepitant was passed through a BSS # 80 mesh sieve, and its solubility in water was determined using a HPLC method. • B. Aprepitant: PVP K30 (1:1 w/w) solid dispersion: 2 g aprepitant and 2 g PVP K 30 were dissolved in a mixture of 200 ml dichloromethane and 20 ml methanol. This solution was dried in a rotary flash evaporator at 50° C. The dried solid dispersion was passed through a BSS # 80 mesh sieve. • C. Premix of A and B (1:6 w/w): Neat aprepitant and solid dispersion from B was mixed in the weight proportions of 1:6. This mixture was passed through a BSS # 80 mesh sieve. • D. Premix of A and B (1:2 w/w): Neat aprepitant and solid dispersion from B was mixed in the weight proportions of 1:2. This mixture was passed through a BSS # 80 mesh sieve. • E. Premix of A and B (3:2 w/w): Neat aprepitant and solid dispersion from B was mixed in the weight proportions of 3:2. This mixture was passed through a BSS # 80 mesh sieve. • F. Aprepitant: Polysorbate 80 (1:1 w/w): 1 g aprepitant and 1 g polysorbate 80 were mixed together by trituration. […]
Injected blank once, standard solution, all sample preparations in different pH solutions each twice into the chromatographic system. Aprepitant solubility in mg/ml was calculated using following formula: […]

[2] = cited from earlier work
[3] = cited from earlier work; remark: listed apart in the source
[4] = U.S. Pat. Nos. 6,096,742 and 6,583,142; cited from earlier work

- solubility [1]: 0.5 µg/mL (≈ 0.936 µM)
SMILES: C[C@@H](O[C@H]1OCCN(Cc2n[nH]c(=O)[nH]2)[C@H]1c1ccc(F)cc1)c1cc(C(F)(F)F)cc(C(F)(F)F)c1 [A, Aprepitant]

SMILES: C[C@@H](O[C@H]1OCCN(Cc2n[nH]c(=O)[nH]2)[C@H]1c1ccc(F)cc1)c1cc(C(F)(F)F)cc(C(F)(F)F)c1 [Aprepitant, 5-[[(2R,3S)-2-[(1R)-1-[3,5-bis(trifluoromethyl)phenyl]ethoxy]-3-(4-fluorophenyl)-4-morpholinyl]methyl]-1,2-dihydro-3H-1,2,4-triazol-3-one]
- permeability characteristics [2]: poor permeability
- solubility in acetonitrile (descriptive) ([3]; acetonitrile): slightly soluble
- solubility in ethanol (descriptive) ([3]; ethanol): sparingly soluble
- solubility in isopropyl acetate (descriptive) ([3]; isopropyl acetate): sparingly soluble
- solubility in water (descriptive) ([3]; water): practically insoluble

SMILES: C[C@@H](O[C@H]1OCCN(Cc2n[nH]c(=O)[nH]2)[C@H]1c1ccc(F)cc1)c1cc(C(F)(F)F)cc(C(F)(F)F)c1 [Form I, aprepitant]
- solubility relative to Form II [4]: lower solubility as compared to Form II
- thermodynamic stability relative to Form II [4]: thermodynamically more stable than Form II
